Measurements reported in US8088791B2, “Antibacterial agents” (Biots Scientific Management Pty Ltd, priority 2006, dated 2012).
Values after ≈ are worked out from the molar mass of the structure shown.

Columns and labels:
Bacillus subtilis 168CA = experiment: Minimum Inhibitory Concentration (MIC) testing, broth microdilution, Bacillus subtilis; type: cell-based; conditions: Bacillus subtilis 168CA; read-out: Bacillus subtilis MICs Activity
Description: (§1) Compounds of this invention were tested for antimicrobial activity by susceptibility testing in liquid media. MICs for compounds against each strain were determined by a broth microdilution method according to the National Committee for Clinical Laboratory Standards (NCCLS) guidelines. (NCCLS. 2000. Methods for dilution antimicrobial susceptibility tests for bacteria that grow aerobically—fifth edition. Approved standard M7-A5. NCCLS, Wayne, Pa.)
(§2) Briefly, test compounds are prepared in 100 μl of 1.6% DMSO solution in multiwell plates. Several bacterial colonies from a freshly streaked plate are transferred to an appropriate rich broth, such as Mueller Hinton. The cell suspension is adjusted to an optical density of 0.09 and further diluted 1:100 with warm 2× broth. This cell suspension is dispensed into the wells containing compound solution so that the final volume is 200 μl. The plates are incubated overnight (16-20 hours) at 37° C. and turbidity is scored by eye and quantified spectrophotometrically. The MIC is defined as the lowest concentration inhibiting visible growth.
Activities were scored as ‘A’ if the MIC was ≦8 micrograms/ml, ‘B’ if the MIC was 16 to 64 micrograms/ml and ‘C’ if the MIC was greater than 64 micrograms/ml.

[1] = test system: Staphylococcus aureus ATCC29213; experiment: Minimum Inhibitory Concentration (MIC) testing, broth microdilution, Staphylococcus aureus; type: cell-based; conditions: Staphylococcus aureus ATCC29213; read-out: Staphylococcus aureus MICs Activity
Description: as §1, §2
Some of the compounds of the Examples were also tested for activity against the pathogenic organism Staphylococcus aureus ATCC29213. […] Activities were again scored as ‘A’ if the MIC was ≦8 micrograms/ml, ‘B’ if the MIC was 16 to 64 micrograms/ml and ‘C’ if the MIC was greater than 64 micrograms/ml.

MIC (Bacillus subtilis 168CA)	MIC [1]	SMILES
16 to 64 µg/mL (≈ 64.7 to 259 µM)	< 8 µg/mL	C=CCCCCCCOc1cccc(C(N)=O)c1 [Example 12, 3-(7-Octenyloxy)benzenecarboxamide]
16 to 64 µg/mL (≈ 73 to 292 µM)	16 to 64 µg/mL (≈ 73 to 292 µM)	C=CCCCCOc1cccc(C(N)=O)c1 [Example 15, 3-(5-Hexenyloxy)benzenecarboxamide]
16 to 64 µg/mL (≈ 68.6 to 274 µM)	16 to 64 µg/mL (≈ 68.6 to 274 µM)	C=CCCCCCOc1cccc(C(N)=O)c1 [Example 17, 3-(6-Heptenyloxy)benzenecarboxamide]
> 64 µg/mL	> 64 µg/mL	CC(=O)OCCCCCOc1cccc(C(N)=O)c1 [Example 18, 5-[3-(Aminocarbonyl)phenoxy]pentyl acetate]
< 8 µg/mL	< 8 µg/mL	CCCCCCCCOc1cccc(C(N)=O)c1 [Example 19, 3-(Octyloxy)benzenecarboxamide]
< 8 µg/mL	< 8 µg/mL	CCCCCCCOc1cccc(C(N)=O)c1 [Example 24, 3-(Heptyloxy)benzenecarboxamide]
> 64 µg/mL	> 64 µg/mL	COC(=O)CCCOc1cccc(C(N)=O)c1 [Example 26, Methyl 4-[3-(aminocarbonyl)phenoxy]butanoate]
> 64 µg/mL	> 64 µg/mL	NC(=O)c1cccc(OCC(=O)OC2CCCCC2)c1 [Example 27, Cyclohexyl 2-[3-(aminocarbonyl)phenoxy]acetate]
< 8 µg/mL	> 64 µg/mL	NC(=O)c1cccc(OCCC2CCCCCC2)c1 [Example 28, 3-(2-Cycloheptylethoxy)benzenecarboxamide]
16 to 64 µg/mL (≈ 66.3 to 265 µM)	16 to 64 µg/mL (≈ 66.3 to 265 µM)	Cc1cccc(COc2cccc(C(N)=O)c2)c1 [Example 29, 3-[(3-Methylbenzyl)oxy]benzenecarboxamide]
> 64 µg/mL	> 64 µg/mL	C/C=C/COc1cccc(C(N)=O)c1 [Example 30, 3-[2-Butenyloxy]benzenecarboxamide]
16 to 64 µg/mL (≈ 65.2 to 261 µM)	16 to 64 µg/mL (≈ 65.2 to 261 µM)	CCCCCC#CCOc1cccc(C(N)=O)c1 [Example 31, 3-(2-Octynyloxy)benzenecarboxamide]
< 8 µg/mL	16 to 64 µg/mL (≈ 61.7 to 247 µM)	CCCCC#CCCCOc1cccc(C(N)=O)c1 [Example 32, 3-(4-Nonynyloxy)benzenecarboxamide]
< 8 µg/mL	> 64 µg/mL	NC(=O)c1cccc(OCCCCCCc2ccccc2)c1 [Example 36, 3-[(6-Phenylhexyl)oxy]benzenecarboxamide]
16 to 64 µg/mL (≈ 72.3 to 289 µM)	16 to 64 µg/mL (≈ 72.3 to 289 µM)	CCCC(C)COc1cccc(C(N)=O)c1 (stereo not drawn) [Example 39, 3-[(2-Methylpentyl)oxy]benzenecarboxamide]
< 8 µg/mL	< 8 µg/mL	CCCC/C=C/CCOc1cccc(C(N)=O)c1 [Example 40, 3-[(E)-3-Octenyloxy]benzenecarboxamide]
16 to 64 µg/mL (≈ 63.7 to 255 µM)	16 to 64 µg/mL (≈ 63.7 to 255 µM)	CCCCOC(=O)COc1cccc(C(N)=O)c1 [Example 41, Butyl 2-[3-(aminocarbonyl)phenoxy]acetate]
< 8 µg/mL	16 to 64 µg/mL (≈ 61.2 to 245 µM)	CCCCCC/C=C\COc1cccc(C(N)=O)c1 [Example 47, 3-[(Z)-2-Nonenyloxy]benzenecarboxamide]
< 8 µg/mL	< 8 µg/mL	CCCCCC/C=C/COc1cccc(C(N)=O)c1 [Example 49, 3-[(E)-2-Nonenyloxy]benzenecarboxamide]
< 8 µg/mL	16 to 64 µg/mL (≈ 61.7 to 247 µM)	CCCCCC#CCCOc1cccc(C(N)=O)c1 [Example 51, 3-(3-Nonynyloxy)benzenecarboxamide]
< 8 µg/mL	< 8 µg/mL	CC/C=C\CCCCOc1cccc(C(N)=O)c1 [Example 52, 3-[(Z)-5-Octenyloxy]benzenecarboxamide]

MIC (Bacillus subtilis 168CA)	MIC [1]	SMILES
> 64 µg/mL	> 64 µg/mL	CCCCCOCCOc1cccc(C(N)=O)c1 [Example 53, 3-[2-(Pentyloxy)ethoxy]benzenecarboxamide]
16 to 64 µg/mL (≈ 60.3 to 241 µM)	16 to 64 µg/mL (≈ 60.3 to 241 µM)	CCCCCCOCCOc1cccc(C(N)=O)c1 [Example 54, 3-[2-(Hexyloxy)ethoxy]benzenecarboxamide]
< 8 µg/mL	< 8 µg/mL	CC(C)=CCC/C(C)=C/CCC(C)COc1cccc(C(N)=O)c1 (stereo not drawn) [Example 55, 3-{[(5E)-2,6,10-Trimethyl-5,9-undecadienyl]oxy}benzenecarboxamide]
< 8 µg/mL	< 8 µg/mL	CC/C=C\CC/C=C/COc1cccc(C(N)=O)c1 [Example 56, 3-[(2E,6Z)-2,6-Nonadienyloxy]benzenecarboxamide]
< 8 µg/mL	16 to 64 µg/mL (≈ 43.2 to 173 µM)	CC(C)(C)c1nc(CCCOc2cccc(C(N)=O)c2)c(C(F)(F)F)o1 [Example 57, 3-{3-[2-(tert-Butyl)-5-(trifluoromethyl)-1,3-oxazol-4-yl]propoxy}benzenecarboxamide]
< 8 µg/mL	< 8 µg/mL	CCCC/C=C/CCCCOc1cccc(C(N)=O)c1 [Example 58, 3-[(E)-5-Decenyloxy]benzenecarboxamide]
< 8 µg/mL	16 to 64 µg/mL (≈ 65.2 to 261 µM)	CCCCC#CCCOc1cccc(C(N)=O)c1 [Example 59, 3-(3-Octynyloxy)benzenecarboxamide]
16 to 64 µg/mL (≈ 72.3 to 289 µM)	16 to 64 µg/mL (≈ 72.3 to 289 µM)	CCC(C)CCOc1cccc(C(N)=O)c1 (stereo not drawn) [Example 60, 3-[(3-Methylpentyl)oxy]benzenecarboxamide]
< 8 µg/mL	< 8 µg/mL	CC/C=C\CCCCCOc1cccc(C(N)=O)c1 [Example 61, 3-[(Z)-6-Nonenyloxy]benzenecarboxamide]
< 8 µg/mL	< 8 µg/mL	CCCCCCCCCOc1ccc(Cl)c(C(N)=O)c1 [Example 68, 2-Chloro-5-(nonyloxy)benzenecarboxamide]
< 8 µg/mL	< 8 µg/mL	C#CCCCCCCCCCOc1ccc(Cl)c(C(N)=O)c1 [Example 69, 2-Chloro-5-(10-undecynyloxy)benzenecarboxamide]
< 8 µg/mL	< 8 µg/mL	CCCCCCCCCOc1ccc(F)c(C(N)=O)c1 [Example 70, 2-Fluoro-5-(nonyloxy)benzenecarboxamide]
< 8 µg/mL	< 8 µg/mL	CCCCCCCCCCOc1ccc(F)c(C(N)=O)c1 [Example 71, 2-Fluoro-5-(decyloxy)benzenecarboxamide]
16 to 64 µg/mL (≈ 51.7 to 207 µM)	16 to 64 µg/mL (≈ 51.7 to 207 µM)	CCCCCCCCCCCOc1ccc(F)c(C(N)=O)c1 [Example 72, 2-Fluoro-5-(undecyloxy)benzenecarboxamide]
< 8 µg/mL	< 8 µg/mL	CC/C=C\CCCCOc1ccc(F)c(C(N)=O)c1 [Example 73, 2-Fluoro-5-[(Z)-5-octenyloxy]benzenecarboxamide]
< 8 µg/mL	< 8 µg/mL	CCCCCC/C=C/COc1ccc(F)c(C(N)=O)c1 [Example 74, 2-Fluoro-5-[(E)-2-nonenyloxy]benzenecarboxamide]
< 8 µg/mL	< 8 µg/mL	C#CCCCCCCCCCOc1ccc(F)c(C(N)=O)c1 [Example 75, 2-Fluoro-5-(10-undecynyloxy)benzenecarboxamide]
16 to 64 µg/mL (≈ 62.2 to 249 µM)	16 to 64 µg/mL (≈ 62.2 to 249 µM)	CCCCCCOc1c(F)ccc(C(N)=O)c1F [Example 80, 2,4-Difluoro-3-(hexyloxy)benzenecarboxamide]
< 8 µg/mL	< 8 µg/mL	CCCCCCOc1ccc(F)c(C(N)=O)c1F [Example 81, 2,6-Difluoro-3-(hexyloxy)benzenecarboxamide]
< 8 µg/mL	< 8 µg/mL	CCCCCCCCCOc1ccc(F)c(C(N)=O)c1F [Example 82, 2,6-Difluoro-3-(nonyloxy)benzenecarboxamide]

SMILES	MIC (Bacillus subtilis 168CA)	MIC [1]
NC(=O)c1cccc(OCCCCO)c1 [Example 42, 3-(4-Hydroxybutoxy)benzenecarboxamide]	16 to 64 µg/mL (≈ 76.5 to 306 µM)	16 to 64 µg/mL (≈ 76.5 to 306 µM)
